Here are results for two compounds from article PMC9926489, “Chemical Optimization of Selective Pseudomonas aeruginosa LasB Elastase Inhibitors and Their Impact on LasB-Mediated Activation of IL-1β in Cellular and Animal Infection Models” (ACS Infectious Diseases, 2023).

Bounds are passed on as bounds.

In experiment [1] the target is T1, human neutrophil elastase (HNE) (Homo sapiens, UniProt P08246).
T1 construct: purchased Enzo Life Sciences
T1 sequence (P08246 30-267): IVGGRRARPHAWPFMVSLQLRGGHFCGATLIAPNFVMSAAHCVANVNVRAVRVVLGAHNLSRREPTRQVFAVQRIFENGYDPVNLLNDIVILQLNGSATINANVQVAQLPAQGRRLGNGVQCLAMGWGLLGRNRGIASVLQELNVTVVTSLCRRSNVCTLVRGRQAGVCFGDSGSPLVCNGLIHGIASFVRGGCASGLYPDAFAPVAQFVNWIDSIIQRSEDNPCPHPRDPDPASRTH
The experiment in a line: HNE selectivity assay. Format: biochemical. The procedure:
Selectivity of compound inhibition was evaluated against other proteases at concentrations between 0.4 and 200 μM. Activity against rabbit angiotensin-converting enzyme (ACE, Sigma) was assessed using 10 μM fluorogenic substrate Abz-Phe-Arg-Lys(Dnp)-P (Enzo Life Sciences) in 100 mM Tris-HCl pH 7, 50 mM NaCl, 10 μM Zn SO4. Activity against human matrix metalloproteases (MMP)-2 and MMP-9 was assessed in 50 mM HEPES pH 7.5, 10 mM CaCl2, 0.01% Triton X-100 using 4 μM fluorogenic substrate Mca-Pro-Leu-Gly-Leu-Dpa-Ala-Arg-NH2 (Enzo Life Sciences). Activity against MMP-1 and MMP-13 was assessed in 25 mM HEPES pH 7.5, 100 mM NaCl, 100 mM CaCl2, 0.0005% Brij using 7.5 μM fluorogenic substrate Mca-Lys-Pro-Leu-Gly-Leu-Dpa-Ala-Arg-NH2 (Sigma) for MMP-1 and 1.25 μM fluorogenic substrate Mca-Pro-Cha-Gly-Nva-His-Ala-Dpa-NH2 (Millipore) for MMP-13. Activity against human neutrophil elastase (HNE, Enzo Life Sciences) was assessed in 100 mM HEPES pH 7.5, 500 mM NaCl, 0.01% of Triton X-100 using 100 μM fluorogenic substrate MeOSuc-AAPV-AMC (Enzo Life Sciences).

Another experiment deals with IL-1β activation. Description: IL-1β activation in P. aeruginosa-infected THP-1 macrophages (HEK IL-1R-lux reporter assay). Type of experiment: cell-based, human. The note with it: Homo sapiens; PAO1-infected THP-1 macrophages, IL-1 reporter assay; read-out: EC50, decrease in IL-1β activation. The procedure: Further to showing in vitro inhibition of LasB-mediated pro-IL-1β proteolysis, experiments were performed to determine the effect of compounds 12 and 16 on IL-1β activation and functionality in human macrophage cell cultures infected with P. aeruginosa PAO1, or an isogenic lasB deletion mutant thereof (ΔlasB). In these experiments, the levels of LasB activity in culture supernatants were measured via hydrolysis of the Sub115 fluorescent peptide, while the effect of LasB activity on IL-1β activation (functionality) was measured using a luciferase reporter cell line sensitive to IL-1β induction (Figure 3).
Human THP-1 macrophages were cultured by conventional methods then, pre-infection, culture media were replaced by RPMI lacking phenol red and antibiotics. […] After 2 h post-infection, 50 μL aliquots of supernatant were removed and used to quantitate both LasB activity and IL-1β functionality. To determine LasB activity, 50 μL of supernatant was added to Sub115 IL-1β peptide and hydrolysis of Sub115 was monitored spectrophotometrically with excitation at 355 nm and emission at 450 nm, as described above. Results were expressed as relative fluorescence units (RFU).
To determine IL-1β functionality, generation of an IL-1 signal was quantified by adding 50 μL of supernatant to HEK IL-1R-lux reporter cells cultured in RPMI supplemented with 5% heat-inactivated FBS, 200 μg/mL penicillin/streptomycin, 200 μg/mL hygromycin, 100 μg/mL zeomycin, and 0.5 μg/mL puromycin. No bacteria survived in this antibiotic condition; 18 h post-treatment, IL-1β-dependent luciferase induction was assayed by luminescence measured with D-luciferin substrate (Steady-Luc, Biotium) on a multimode reader (PerkinElmer) and expressed as relative luminescence units (RU), as previously described.[16]
In the first variation, experimental infections were performed with P. aeruginosa PAO1 and ΔlasB bacteria incubated with varying quantities of inhibitor at final concentrations ranging from 0.5 to 8 μM. […]

The next experiment concerns P. aeruginosa PAO1. The experiment in a line: Mouse P. aeruginosa lung infection model, bacterial numbers (CFUs) in lung homogenates. Type of experiment: in vivo. The note with it: C57Bl/6 mice, 24 h. The procedure: To investigate if compounds 12 and 16 were able to engage the LasB target in vivo, in the context of a P. aeruginosa lung infection, and to determine the consequences of that inhibition, immunocompetent C57Bl/6 mice were infected intranasally with P. aeruginosa PAO1 and treated with two doses of inhibitors, 10 and 30 mg/kg, administered IV at 1 and 4 h post-infection (Figure 5A). A control group of PAO1-infected animals treated with vehicle and a group of animals infected with the isogenic ΔlasB strain were included in the study. Mice were euthanized 24 h post-infection and their lung homogenates assayed for activated mature IL-1β (using the IL-1 reporter assay) and bacterial numbers (by CFU enumeration).
Infection experiments were approved by the Institutional Animal Care and Use Committee of Emory University. To prepare the bacterial inoculum, P. aeruginosa PAO1 (or its ΔlasB derivative) was grown in Luria broth with shaking at physiologic (37 °C) temperature for 18 h to maximally express LasB (at late log phase). Bacteria were then harvested, washed, and diluted in sterile phosphate-buffered saline (PBS) for delivery of 10^9 colony-forming units (CFUs) in 40 μL. For infection, female C57Bl/6 mice (five/group) were sedated using isofluorane and the bacterial suspension was slowly administered via micropipette between the nostrils and the animals were allowed to aspirate the inoculum via the normal breathing process. Compounds 12 and 16 were administered in PBS via injection (100 μL volume) to achieve doses of 10 and 30 mg/kg. The mice were euthanized 24 h post-infection and the lungs were excised. Active IL-1β was quantified by adding 100 μL of cell-free homogenate to IL-1β responsive HEK IL-1R-lux reporter cells. Activity was assayed by luminescence measured with D-luciferin substrate (Steady-Luc, Biotium) on a multimode reader (PerkinElmer) and expressed as relative luminescence units (RU). CFU was enumerated by dilution plating on Luria agar. Statistics were calculated by ANOVA with a Dunnett post-test.

Setting [2] is: 30 mg/kg IV at 1 and 4 h post-infection.

As for `COc1cc2sc(CNC(=O)C3(CC(=O)O)Cc4ccccc4C3)nc2cc1OCCC[N+](C)(C)C` [Compound 12], in experiment [1], the IC50 is above 200000 nM. Moreover, the concentration for a half-maximal effect (EC50) with IL-1β activation is around 500 nM. Moreover, the “log reduction in bacterial numbers (CFUs) in lung” value in the experiment with P. aeruginosa PAO1 (10 mg/kg IV at 1 and 4 h post-infection) was found to be 0.48 log; with P. aeruginosa PAO1 (setting [2]), 0.69 log.
In turn, `COc1cc2sc(CNC(=O)C3(CC(=O)O)Cc4cc(F)c(F)cc4C3)nc2cc1OCCC[N+](C)(CCO)CCO` [Compound 16] yielded an IC50 in experiment [1] above 200000 nM. The half-maximal effective concentration (EC50) with IL-1β activation was around 500 nM. In addition, the “log reduction in bacterial numbers (CFUs) in lung” value with P. aeruginosa PAO1 (setting [2]) came to 0.47 log.
